The assay relates to L1210 leukemia ip in BDF1 mice, survival T/C. In words: NCI In Vivo Anticancer Drug Screen. Data for tumor model L1210 Leukemia (intraperitoneal) in B6D2F1 (BDF1) mice. Particulars: endpoint: mean survival time, higher = longer survival. A digest of the protocol:
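Tumor cells were implanted, animals were treated, and survival was followed. The result divides the treated measurement by the vehicle-control measurement.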

Where [1] appears, read: dose: 50.0 mg/kg/injection, schedule: Q01DX009 (ip), vehicle: saline with Tween-80.
Where [2] appears, read: dose: 100.0 mg/kg/injection, schedule: Q01DX009 (ip), vehicle: saline with Tween-80.
[3] abbreviates: dose: 200.0 mg/kg/injection, schedule: Q01DX009 (ip), vehicle: saline with Tween-80.
The mark [4] stands for this setting: dose: 200.0 mg/kg/injection, schedule: Q04DX003 (ip), vehicle: saline with Tween-80.
Where [5] appears, read: dose: 100.0 mg/kg/injection, schedule: Q04DX003 (ip), vehicle: saline with Tween-80.
The mark [6] stands for this setting: dose: 100.0 mg/kg/injection, schedule: Q01DX001 (ip), vehicle: carboxymethylcellulose (CMC).
[7] abbreviates: dose: 200.0 mg/kg/injection, schedule: Q01DX001 (ip), vehicle: carboxymethylcellulose (CMC).
Setting [8] is: dose: 400.0 mg/kg/injection, schedule: Q01DX001 (ip), vehicle: carboxymethylcellulose (CMC).
Where [9] appears, read: dose: 100.0 mg/kg/injection, schedule: Q01DX001 (ip), vehicle: saline.
The mark [10] stands for this setting: dose: 200.0 mg/kg/injection, schedule: Q01DX001 (ip), vehicle: saline.

“And” between values parts separate entries of the source, which are not always exact repeats. Equal values may be shown once. Toxic doses and inconclusive results are not listed.

For the molecule `Cc1cccc(C(=O)O)c1CC1NCCC2c3ccccc3NC12` (stereo not given), the T/C (dose: 75.0 mg/kg/injection, schedule: Q01DX001 (ip), vehicle: saline) was 98 % of control and the T/C (dose: 150.0 mg/kg/injection, schedule: Q01DX001 (ip), vehicle: saline) was 100 % of control.
For `CCOC(=O)c1ccc(NC(=O)Nc2ccc(NC(C)=O)cc2)cc1`, the T/C (dose: 25.0 mg/kg/injection, schedule: Q01DX009 (ip), vehicle: saline with Tween-80) is 89 % of control; the T/C (dose: 25.0 mg/kg/injection, schedule: Q04DX002 (ip), vehicle: saline with Tween-80) was 86 % of control; the T/C (dose: 25.0 mg/kg/injection, schedule: Q04DX003 (ip), vehicle: saline with Tween-80) is 88 % of control; the T/C (dose: 50.0 mg/kg/injection, schedule: Q01DX001 (ip), vehicle: saline with Tween-80) was 88 % of control; the T/C under setting [1] is 89 % of control; the T/C (dose: 50.0 mg/kg/injection, schedule: Q04DX002 (ip), vehicle: saline with Tween-80) is 86 % of control and 88 % of control. Also, the T/C was 86 % of control (dose: 50.0 mg/kg/injection, schedule: Q04DX003 (ip), vehicle: saline with Tween-80); 88 % of control (dose: 100.0 mg/kg/injection, schedule: Q01DX001 (ip), vehicle: saline with Tween-80); 91 % of control under setting [2]; 93 % of control (dose: 200.0 mg/kg/injection, schedule: Q01DX001 (ip), vehicle: saline with Tween-80); 91 % of control under setting [3]; 99 % of control (dose: 200.0 mg/kg/injection, schedule: Q04DX002 (ip), vehicle: saline with Tween-80). Moreover, the T/C is 90 % of control under setting [4] and 106 % of control (dose: 400.0 mg/kg/injection, schedule: Q04DX002 (ip), vehicle: saline with Tween-80).
Take `CCC(C(=O)OC)C1CCCCC1` (stereo not given): the T/C is 100 % of control under setting [2]; 103 % of control under setting [5]; 87 % of control under setting [3]; 95 % of control under setting [4]; 92 % of control (dose: 400.0 mg/kg/injection, schedule: Q01DX009 (ip), vehicle: saline with Tween-80); 95 % of control (dose: 400.0 mg/kg/injection, schedule: Q04DX003 (ip), vehicle: saline with Tween-80).
Consider `CCOC(=O)CC(COC)C(C(=O)OCC)C(=O)OCC` (stereo not given), for which the T/C reads like this: (dose: 100.0 mg/kg/injection, schedule: Q01DX009 (ip), vehicle: other) 100 % of control; (dose: 100.0 mg/kg/injection, schedule: Q04DX003 (ip), vehicle: other) 88 % of control; (dose: 200.0 mg/kg/injection, schedule: Q01DX009 (ip), vehicle: other) 100 % of control; (dose: 200.0 mg/kg/injection, schedule: Q04DX003 (ip), vehicle: other) 94 % of control; (dose: 400.0 mg/kg/injection, schedule: Q01DX009 (ip), vehicle: other) 98 % of control; (dose: 400.0 mg/kg/injection, schedule: Q04DX003 (ip), vehicle: other) 105 % of control.
Take `C[N+](C)(C)CCSc1ccc2c3c(cccc13)C(=O)c1ccccc1-2`: the T/C was 107 % of control (dose: 12.5 mg/kg/injection, schedule: Q04DX002 (ip), vehicle: saline); 104 % of control (dose: 25.0 mg/kg/injection, schedule: Q04DX002 (ip), vehicle: saline); 86 % of control (dose: 50.0 mg/kg/injection, schedule: Q04DX002 (ip), vehicle: saline).
For the molecule `O=C(O)c1cc2c(Br)cccc2c2cc(C(F)(F)F)ccc12`, the T/C is 97 % of control under setting [5] and 113 % of control under setting [4].
`COC(=O)c1ccc(O)c(C(=O)OC)c1`: the T/C reads like this: under setting [6], 92 % of control; under setting [7], 97 % of control; under setting [8], 103 % of control.
With `[CH3][Sn]([CH3])([CH3])[Cl]`, the T/C is 108 % of control (dose: 0.12 mg/kg/injection, schedule: Q04DX002 (ip), vehicle: saline); 105 % of control (dose: 0.25 mg/kg/injection, schedule: Q04DX002 (ip), vehicle: saline); 108 % of control (dose: 0.5 mg/kg/injection, schedule: Q04DX002 (ip), vehicle: saline).
Regarding `OCc1cc2ccccc2cc1F`, the T/C reads like this: under setting [1], 105 % of control; under setting [2], 92 % of control; (dose: 100.0 mg/kg/injection, schedule: Q04DX003 (ip), vehicle: acetone) 100 % of control; under setting [3], 103 % of control; (dose: 200.0 mg/kg/injection, schedule: Q04DX003 (ip), vehicle: acetone) 87 % of control.
In the case of `CO[C@@]12[C@H](COC(N)=O)C3=C(C(=O)C(C)=C(NCCO)C3=O)N1C[C@@H]1N[C@@H]12`, the T/C (dose: 2.9 mg/kg/injection, schedule: Q01DX001 (ip), vehicle: acetone) is 113 % of control; the T/C (dose: 4.3 mg/kg/injection, schedule: Q01DX001 (ip), vehicle: acetone) is 117 % of control; the T/C (dose: 6.6 mg/kg/injection, schedule: Q01DX001 (ip), vehicle: saline) was 113 % of control; the T/C (dose: 7.5 mg/kg/injection, schedule: Q01DX009 (ip), vehicle: saline) was 91 % of control; the T/C (dose: 9.9 mg/kg/injection, schedule: Q01DX001 (ip), vehicle: saline) was 111 % of control; the T/C (dose: 22.0 mg/kg/injection, schedule: Q01DX001 (ip), vehicle: saline) was 113 % of control. Moreover, under “dose: 33.0 mg/kg/injection, schedule: Q01DX001 (ip), vehicle: acetone”, the T/C was 159 % of control.
For the molecule `Cn1c(=O)c2[nH]c(CCCc3nc4c([nH]3)c(=O)n(C)c(=O)n4C)nc2n(C)c1=O`, the T/C (dose: 25.0 mg/kg/injection, schedule: Q01DX001 (ip), vehicle: carboxymethylcellulose (CMC)) is 93 % of control; the T/C (dose: 50.0 mg/kg/injection, schedule: Q01DX001 (ip), vehicle: carboxymethylcellulose (CMC)) was 105 % of control; the T/C under setting [6] was 98 % of control; the T/C under setting [7] was 101 % of control.
As to `CC1(C)Oc2c(ccc(O)c2CN2CCOCC2)C2=C1CCCC2`, the T/C was 93 % of control under setting [6], 96 % of control under setting [7] and 91 % of control under setting [8].
As for `Cc1noc(C)c1CC1(Cc2c(C)noc2C)C(=O)CCC2(C)CCCC=C21` (stereo not given), the T/C (dose: 100.0 mg/kg/injection, schedule: Q01DX009 (ip), vehicle: Klucel (hydroxypropylcellulose) (HPC)) was 92 % of control; the T/C (dose: 100.0 mg/kg/injection, schedule: Q04DX003 (ip), vehicle: Klucel (hydroxypropylcellulose) (HPC)) is 95 % of control; the T/C (dose: 200.0 mg/kg/injection, schedule: Q01DX009 (ip), vehicle: Klucel (hydroxypropylcellulose) (HPC)) is 98 % of control; the T/C (dose: 200.0 mg/kg/injection, schedule: Q04DX003 (ip), vehicle: Klucel (hydroxypropylcellulose) (HPC)) was 93 % of control; the T/C (dose: 400.0 mg/kg/injection, schedule: Q01DX009 (ip), vehicle: Klucel (hydroxypropylcellulose) (HPC)) is 97 % of control; the T/C (dose: 400.0 mg/kg/injection, schedule: Q04DX003 (ip), vehicle: Klucel (hydroxypropylcellulose) (HPC)) is 96 % of control.
As to `O=C(COc1ccc(Cl)cc1Cl)Nc1ccc2ccccc2c1`, the T/C is 95 % of control and 96 % of control (dose: 100.0 mg/kg/injection, schedule: Q04DX002 (ip), vehicle: saline); 103 % of control (dose: 200.0 mg/kg/injection, schedule: Q04DX002 (ip), vehicle: saline); 107 % of control and 92 % of control (dose: 400.0 mg/kg/injection, schedule: Q04DX002 (ip), vehicle: saline).
As for `CC(=O)OCCC[P+](c1ccccc1)(c1ccccc1)c1ccccc1`, the T/C reads like this: under setting [9], 102 % of control; under setting [10], 110 % of control.
Take `c1cc(C2OCCO2)ccn1`: the T/C runs as follows: under setting [9], 101 % of control; (dose: 100.0 mg/kg/injection, schedule: Q04DX003 (ip), vehicle: saline) 107 % of control; under setting [10], 100 % of control; (dose: 200.0 mg/kg/injection, schedule: Q04DX003 (ip), vehicle: saline) 100 % of control; (dose: 400.0 mg/kg/injection, schedule: Q01DX001 (ip), vehicle: saline) 100 % of control; (dose: 400.0 mg/kg/injection, schedule: Q04DX003 (ip), vehicle: saline) 97 % of control.

Values taken from PubChem BioAssay AID248 (DTP/NCI, 2004).
